The results in this text go back to patent publication US12528815B2, “5-amino-8-(4-pyridyl)-[1,2,4]triazolo[4,3-c]pyrimidin-3-one compounds for use against cancer” (Nxera Pharma UK Limited, priority 2020, dated 2026).

The target of assay [1] is T1, human CB1 receptor (Homo sapiens, UniProt P21554).
T1 construct: expressed in transfected cells; host or cells: CHO cells
Description: CB1 receptor antagonism, agonist-induced cAMP modulation (HTRF) in transfected CHO cells. It is filed as cell-based. The following applies: read-out: Antag IC50. How it is done: Receptor antagonism: Evaluation of the antagonist activity of compounds at the human CB1 receptor expressed in transfected CHO cells, determined by measuring their effects on agonist-induced cAMP modulation using the HTRF detection method.
Thereafter, the reference agonist CP 55940 and the adenylyl cyclase activator NKH 477 are added at respective final concentrations of 3 nM and 3 μM.
For basal control measurements, CP 55940 is omitted from the wells containing 3 μM AM 281.
Following 20 min incubation at 37° C., the cells are lysed and the fluorescence acceptor (D2-labeled cAMP) and fluorescence donor (anti-cAMP antibody labeled with europium cryptate) are added.
After 60 min at room temperature, the fluorescence transfer is measured at λex=337 nm and λem=620 and 665 nm using a microplate reader (Rubystar, BMG). The cAMP concentration is determined by dividing the signal measured at 665 nm by that measured at 620 nm (ratio).
The standard reference antagonist is AM 281, which is tested in each experiment at several concentrations to generate a concentration-response curve from which its IC50 value is calculated.

In assay [2] the target is T2, human adenosine A1 receptor (Homo sapiens, UniProt P30542).
T2 construct: expressed in transfected cells; host or cells: HEK293 cells infected with BacMam (the same paragraph also labels the preparation CHO-hA1)
T2 sequence (P30542 1-326): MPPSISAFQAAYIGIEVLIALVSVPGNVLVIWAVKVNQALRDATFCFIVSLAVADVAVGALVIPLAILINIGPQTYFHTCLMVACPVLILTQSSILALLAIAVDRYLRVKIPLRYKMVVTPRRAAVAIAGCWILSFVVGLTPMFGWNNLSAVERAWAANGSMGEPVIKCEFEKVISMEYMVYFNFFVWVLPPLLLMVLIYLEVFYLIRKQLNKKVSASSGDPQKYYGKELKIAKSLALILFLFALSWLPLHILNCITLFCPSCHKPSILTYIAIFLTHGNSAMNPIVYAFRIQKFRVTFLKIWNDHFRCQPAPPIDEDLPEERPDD
Description: Inhibition binding assay, human adenosine A1 receptor membranes, [3H]DPCPX. Particulars: 1 nM [3H]DPCPX, 25° C., 1 h; IC50 converted to Ki with Cheng-Prusoff; read-out: A1 pKi (converted). An outline of the steps:
(§1)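 Membranes from BacMam-infected HEK293 cells (0.2 μg A2A, 1.4 μg A1) incubated 1 h at 25° C with test compound and 1 nM [3H]ZM241385 (A2A; 50 mM Tris-HCl pH 7.4) or [3H]DPCPX (A1; plus 100 mM NaCl, 10 mM MgCl2). Nonspecific: 1 μM CGS15943 or DPCPX. Filtration, scintillation; IC50 converted to Ki via Cheng-Prusoff.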

The target of assay [3] is T3, human adenosine A2A receptor (Homo sapiens, UniProt P29274).
T3 construct: expressed in transfected cells; host or cells: HEK293 cells infected with BacMam
Put plainly: Inhibition binding assay, human adenosine A2A receptor membranes, [3H]ZM241385. The following applies: 1 nM [3H]ZM241385, HEK293-hA2A membranes, 25° C., 1 h; IC50 converted to Ki with Cheng-Prusoff; read-out: A2A pKi (converted). An outline of the steps: as §1

In assay [4] the target is T4, human CB-1 cannabinoid receptor (Homo sapiens, UniProt P21554).
T4 construct: expressed in transfected cells; host or cells: CHO cells
Put plainly: CB1 receptor radioligand binding assay, [3H]CP 55940, transfected CHO cell membranes. Particulars: 0.5 nM [3H]CP 55940, CHO membrane homogenates, 120 min at 37° C. How it is done: Nonspecific binding is determined in the presence of 10 μM WIN 55212-2.
Following incubation, the samples are filtered rapidly under vacuum through glass fiber filters (GF/B, Packard) presoaked with 0.3% PEI and rinsed several times with an ice-cold buffer containing 50 mM Tris-HCl (pH 7.4) and 0.5% BSA using a 96-sample cell harvester (Unifilter, Packard). The filters are dried then counted for radioactivity in a scintillation counter (Topcount, Packard) using a scintillation cocktail (Microscint 0, Packard).
The standard reference compound is CP 55940 which is tested in each experiment at several concentrations to obtain a competition curve from which its IC50 is calculated.

T1 sequence (P21554 whole entry): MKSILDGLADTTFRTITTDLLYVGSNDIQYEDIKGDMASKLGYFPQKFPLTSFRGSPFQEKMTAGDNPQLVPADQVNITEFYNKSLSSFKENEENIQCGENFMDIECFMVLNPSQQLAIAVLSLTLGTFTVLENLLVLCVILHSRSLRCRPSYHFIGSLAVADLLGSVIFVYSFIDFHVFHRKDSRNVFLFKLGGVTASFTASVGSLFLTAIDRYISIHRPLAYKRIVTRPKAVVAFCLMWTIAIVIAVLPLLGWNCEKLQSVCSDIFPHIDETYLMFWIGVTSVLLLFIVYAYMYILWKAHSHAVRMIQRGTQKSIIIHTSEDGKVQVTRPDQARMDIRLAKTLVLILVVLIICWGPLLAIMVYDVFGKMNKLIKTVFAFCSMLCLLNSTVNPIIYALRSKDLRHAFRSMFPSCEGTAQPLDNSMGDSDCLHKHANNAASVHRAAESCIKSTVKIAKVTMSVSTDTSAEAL
T4 sequence (P21554 whole entry): as above
T3 sequence (P29274 whole entry): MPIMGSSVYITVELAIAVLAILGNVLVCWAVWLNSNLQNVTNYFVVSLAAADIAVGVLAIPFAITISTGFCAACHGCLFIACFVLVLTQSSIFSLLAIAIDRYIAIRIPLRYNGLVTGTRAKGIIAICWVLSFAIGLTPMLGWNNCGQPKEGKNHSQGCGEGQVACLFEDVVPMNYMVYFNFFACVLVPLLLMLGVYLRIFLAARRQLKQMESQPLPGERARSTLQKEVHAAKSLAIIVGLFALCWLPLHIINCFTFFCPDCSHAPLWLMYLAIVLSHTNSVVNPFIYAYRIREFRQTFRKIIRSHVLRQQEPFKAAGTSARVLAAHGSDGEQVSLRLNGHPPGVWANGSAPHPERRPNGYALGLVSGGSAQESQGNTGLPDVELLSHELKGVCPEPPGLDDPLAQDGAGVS

In the case of `Cc1cc(-c2c(-c3ccccc3)nc(N)n3c(=O)n(Cc4ccc(F)cc4)nc23)cc(C)n1` [Example 1-1, 5-amino-8-(2,6-dimethyl-4-pyridyl)-2-[(4-fluorophenyl)methyl]-7-phenyl-[1,2,4]triazolo[4,3-c]pyrimidin-3-one], the IC50 – broadly, the concentration that gives 50% inhibition – in assay [1] was 1700 nM. The Ki in assay [2] was 31.6 nM; in assay [3], 0.398 nM; in assay [4], 3600 nM.

On to `Cc1cc(-c2c(-c3ccccc3)nc(N)n3c(=O)n(Cc4ccc(F)cn4)nc23)cc(C)n1` [Example 1-2, 5-amino-8-(2,6-dimethyl-4-pyridyl)-2-[(5-fluoro-2-pyridyl)methyl]-7-phenyl-[1,2,4]triazolo[4,3-c]pyrimidin-3-one], for which the 50% inhibitory concentration (IC50) in assay [1] was over 4900 nM. In addition, the figures for the Ki in assay [2], in assay [3] and in assay [4] were 316 nM, 0.794 nM and 20100 nM, respectively.

Consider `Cc1cc(-c2c(-c3ccccc3)nc(N)n3c(=O)n(C(C)c4ccc(F)cc4F)nc23)cc(C)n1` (centres unmarked) [Example 1-11, 5-amino-2-[1-(2,4-difluorophenyl)ethyl]-8-(2,6-dimethyl-4-pyridyl)-7-phenyl-[1,2,4]triazolo[4,3-c]pyrimidin-3-one], for which the IC50 in assay [1] came out at 5000 nM. Further, the Ki in assay [2] is 398 nM; in assay [3] it was 6.31 nM; in assay [4] it was 2600 nM.

Take `COc1ncc(F)cc1Cn1nc2c(-c3cc(C)nc(C)c3)c(-c3ccccc3)nc(N)n2c1=O` [Example 1-40, 5-amino-8-(2,6-dimethyl-4-pyridyl)-2-[(5-fluoro-2-methoxy-3-pyridyl)methyl]-7-phenyl-[1,2,4]triazolo[4,3-c]pyrimidin-3-one]: the IC50 in assay [1] worked out at 7400 nM. Also, the Ki in assay [2] was 39.8 nM; in assay [3], 0.794 nM; in assay [4] it was 24100 nM.

As to `Cc1cc(-c2c(-c3ccc(F)cc3)nc(N)n3c(=O)n(Cc4cccnn4)nc23)cc(C)n1` [Example 1-41, 5-amino-8-(2,6-dimethyl-4-pyridyl)-7-(4-fluorophenyl)-2-(pyridazin-3-ylmethyl)-[1,2,4]triazolo[4,3-c]pyrimidin-3-one], the IC50 in assay [1] amounted to 43100 nM. Further, the results for the Ki in assay [2], in assay [3] and in assay [4] were 398 nM, 2.51 nM and 45600 nM, respectively.

`Cc1cc(-c2c(-c3ccccc3)nc(N)n3c(=O)n(Cc4ccc(F)cn4)nc23)cc(C)[n+]1[O-]` [Example 1-42, 5-amino-8-(2,6-dimethyl-1-oxido-pyridin-1-ium-4-yl)-2-[(5-fluoro-2-pyridyl)methyl]-7-phenyl-[1,2,4]triazolo[4,3-c]pyrimidin-3-one]: the IC50 in assay [1] is over 100000 nM. Also, the Ki in assay [2] was 251 nM; in assay [3] it was 15.8 nM; in assay [4] it was 73400 nM.

As for `Cc1cc(-c2c(-c3ccccc3)nc(N)n3c(=O)n(Cc4ccc(F)cn4)nc23)cc(CO)n1` [Example 1-44, 5-amino-2-[(5-fluoro-2-pyridyl)methyl]-8-[2-(hydroxymethyl)-6-methyl-4-pyridyl]-7-phenyl-[1,2,4]triazolo[4,3-c]pyrimidin-3-one], the half-inhibitory concentration (IC50) in assay [1] is 63300 nM. Besides, the Ki was 398 nM in assay [2], 1.58 nM in assay [3] and 40000 nM in assay [4].

In the case of `Cc1ccc(Cn2nc3c(-c4cc(C)nc(CO)c4)c(-c4ccccc4)nc(N)n3c2=O)nc1` [Example 1-52, 5-amino-8-[2-(hydroxymethyl)-6-methyl-4-pyridyl]-2-[(5-methyl-2-pyridyl)methyl]-7-phenyl-[1,2,4]triazolo[4,3-c]pyrimidin-3-one], the IC50 in assay [1] was 39400 nM. The Ki in assay [2] was 501 nM; in assay [3] it was 0.631 nM; in assay [4], 46100 nM.

On to `CCOC(=O)N(C)CCn1nc2c(-c3cc(C)nc(C)c3)c(-c3ccccc3)nc(N)n2c1=O` [Example 2-13, ethyl N-[2-[5-amino-8-(2,6-dimethyl-4-pyridyl)-3-oxo-7-phenyl-[1,2,4]triazolo[4,3-c]pyrimidin-2-yl]ethyl]-N-methyl-carbamate], for which the IC50 in assay [1] is over 100000 nM. Also, the figures for the Ki in assay [2] and in assay [3] were 501 nM and 15.8 nM, respectively.

Regarding `COc1ccc(-c2nc(N)n3c(=O)n(CCC(F)(F)F)nc3c2-c2cc(C)nc(C)c2)cc1` [Example 2-35, 5-amino-8-(2,6-dimethyl-4-pyridyl)-7-(4-methoxyphenyl)-2-(3,3,3-trifluoropropyl)-[1,2,4]triazolo[4,3-c]pyrimidin-3-one], the Ki in assay [2] was 79.4 nM; in assay [3] it was 1.26 nM; in assay [4], 18800 nM.

On to `Cc1cc(-c2c(-c3ccccn3)nc(N)n3c(=O)n(CCC(F)(F)F)nc23)cc(C)n1` [Example 2-37, 5-amino-8-(2,6-dimethyl-4-pyridyl)-7-(2-pyridyl)-2-(3,3,3-trifluoropropyl)-[1,2,4]triazolo[4,3-c]pyrimidin-3-one], for which the IC50 in assay [1] is over 100000 nM. The Ki is over 3160 nM in assay [2] and 31.6 nM in assay [3].

With `COc1cc(-c2c(-c3ccccc3)nc(N)n3c(=O)n(CCC(F)(F)F)nc23)cc(CO)n1` [Example 2-46, 5-amino-8-[2-(hydroxymethyl)-6-methoxy-4-pyridyl]-7-phenyl-2-(3,3,3-trifluoropropyl)-[1,2,4]triazolo[4,3-c]pyrimidin-3-one], in assay [1], the IC50 was over 100000 nM. Besides, the figures for the Ki in assay [3] and in assay [4] were 1 nM and 61000 nM, respectively.

Turning to `Cc1cc(-c2c(-c3ccccc3)nc(N)n3c(=O)n(CCC(F)(F)F)nc23)cc(C)[n+]1[O-]` [Example 2-56, 5-amino-8-(2,6-dimethyl-1-oxido-pyridin-1-ium-4-yl)-7-phenyl-2-(3,3,3-trifluoropropyl)-[1,2,4]triazolo[4,3-c]pyrimidin-3-one], the half-inhibitory concentration (IC50) in assay [1] is over 100000 nM. Besides, the Ki in assay [2] was 316 nM; in assay [3], 12.6 nM.

In the case of `Cc1cc(-c2c(-c3ccc(F)cc3)nc(N)n3c(=O)n(CCC(F)(F)F)nc23)cc(CO)n1` [Example 2-64, 5-amino-7-(4-fluorophenyl)-8-[2-(hydroxymethyl)-6-methyl-4-pyridyl]-2-(3,3,3-trifluoropropyl)-[1,2,4]triazolo[4,3-c]pyrimidin-3-one], the concentration for half-maximal inhibition (IC50) in assay [1] turned out to be 37400 nM. Moreover, the Ki in assay [2] is over 1260 nM; in assay [3] it was 1.58 nM.

For `Cc1cc(-c2c(-c3ccccc3)nc(N)n3c(=O)n(C[C@H]4CNCCO4)nc23)cc(C)n1` [Example 2-66, (R)-5-amino-8-(2,6-dimethylpyridin-4-yl)-2-(morpholin-2-ylmethyl)-7-phenyl-[1,2,4]triazolo[4,3-c]pyrimidin-3(2H)-one], the IC50 in assay [1] was over 100000 nM. In addition, the Ki in assay [2] was 1000 nM; in assay [3], 6.31 nM.

For `Cc1cc(-c2c(-c3ccccc3)nc(N)n3c(=O)n(C[C@@H]4COCCN4C)nc23)cc(C)n1` [Example 2-80, 5-amino-8-(2,6-dimethyl-4-pyridyl)-2-[[(3R)-4-methylmorpholin-3-yl]methyl]-7-phenyl-[1,2,4]triazolo[4,3-c]pyrimidin-3-one], the IC50 in assay [1] is over 100000 nM. Also, the Ki was 200 nM in assay [2] and 7.94 nM in assay [3].

For the molecule `CCN(C)c1nc(N)n2c(=O)n(CCC(F)(F)F)nc2c1-c1cc(C)nc(C)c1` [Example 3-4, 5-amino-8-(2,6-dimethyl-4-pyridyl)-7-[ethyl(methyl)amino]-2-(3,3,3-trifluoropropyl)-[1,2,4]triazolo[4,3-c]pyrimidin-3-one], the IC50 in assay [1] is over 100000 nM. Further, the Ki is over 3160 nM in assay [2] and 126 nM in assay [3].
